According to patent US20170217946A1, “AMINO-SUBSTITUTED ISOXAZOLES” (Bayer Pharma Aktiengesellschaft, priority 2014, published 2017):

Tests used:
[1] = system: HeLa cells; assay: Proliferation assay (crystal violet); assay type: cell-based; conditions: Homo sapiens, 96 h, 4 days incubation, read-out: Inhibition of proliferation HeLa IC50
Experimental: Cultivated tumor cells (cells were ordered from ATCC, except HeLa-MaTu and HeLa-MaTu-ADR, which were ordered from EPO-GmbH, Berlin) were plated at a density of 1000 to 5000 cells/well, depending on the growth rate of the respective cell line, in a 96-well multititer plate in 200 μL of their respective growth medium supplemented 10% fetal calf serum. After 24 hours, the cells of one plate (zero-point plate) were stained with crystal violet (see below), while the medium of the other plates was replaced by fresh culture medium (200 μl), to which the test substances were added in various concentrations (0 μM, as well as in the range of 0.001-10 μM; the final concentration of the solvent dimethyl sulfoxide was 0.5%). The cells were incubated for 4 days in the presence of test substances. Cell proliferation was determined by staining the cells with crystal violet: the cells were fixed by adding 20 μl/measuring point of an 11% glutaric aldehyde solution for 15 minutes at room temperature. After three washing cycles of the fixed cells with water, the plates were dried at room temperature. The cells were stained by adding 100 μl/measuring point of a 0.1% crystal violet solution (pH 3.0). After three washing cycles of the stained cells with water, the plates were dried at room temperature. The dye was dissolved by adding 100 μl/measuring point of a 10% acetic acid solution. Absorption was determined by photometry at a wavelength of 595 nm. The change of cell number, in percent, was calculated by normalization of the measured values to the absorption values of the zero-point plate (=0%) and the absorption of the untreated (0 μm) cells (=100%). The IC50 values were determined by means of a 4 parameter fit.

[2] = target: T1, CDK2/CycE (Homo sapiens, UniProt P24941); assay: CDK2/CycE kinase assay (TR-FRET); assay type: biochemical; conditions: 10 μM ATP
T1 construct: GST; purchased ProQinase GmbH (Freiburg, Germany); host or cells: insect cells (Sf9)
Text: CDK2/CycE-inhibitory activity of compounds of the present invention was quantified employing the CDK2/CycE TR-FRET assay as described in the following paragraphs.
Recombinant fusion proteins of GST and human CDK2 and of GST and human CycE, expressed in insect cells (Sf9) and purified by Glutathion-Sepharose affinity chromatography, were purchased from ProQinase GmbH (Freiburg, Germany). As substrate for the kinase reaction biotinylated peptide biotin-Ttds-YISPLKSPYKISEG (C-terminus in amid form) was used which can be purchased e.g. form the company JERINI peptide technologies (Berlin, Germany).
For the assay 50 nl of a 100 fold concentrated solution of the test compound in DMSO was pipetted into a black low volume 384 well microtiter plate (Greiner Bio-One, Frickenhausen, Germany), 2 μl of a solution of CDK2/CycE in aqueous assay buffer [50 mM Tris/HCl pH 8.0, 10 mM MgCl2, 1.0 mM dithiothreitol, 0.1 mM sodium ortho-vanadate, 0.01% (v/v) Nonidet-P40 (Sigma)] were added and the mixture was incubated for 15 min at 22° C. to allow pre-binding of the test compounds to the enzyme before the start of the kinase reaction. Then the kinase reaction was started by the addition of 3 μl of a solution of adenosine-tri-phosphate (ATP, 16.7 μM=>final conc. in the 5 μl assay volume is 10 μM) and substrate (1.25 μM=>final conc. in the 5 μl assay volume is 0.75 μM) in assay buffer and the resulting mixture was incubated for a reaction time of 25 min at 22° C. […]
The resulting mixture was incubated 1 h at 22° C. to allow the formation of complex between the phosphorylated biotinylated peptide and the detection reagents. Subsequently the amount of phosphorylated substrate was evaluated by measurement of the resonance energy transfer from the Eu-chelate to the streptavidine-XL. Therefore, the fluorescence emissions at 620 nm and 665 nm after excitation at 350 nm was measured in a TR-FRET reader, e.g. a Rubystar (BMG Labtechnologies, Offenburg, Germany) or a Viewlux (Perkin-Elmer). […]

Compound	IC50 [1] [µM]	IC50 [2] [µM]
Cc1noc(Nc2cnc(C(F)(F)F)cn2)c1C(=O)Nc1ccc(OC2CCN(CCC(F)(F)F)CC2)nc1 [Example 1a, 3-Methyl-5-{[5-(trifluoromethyl)pyrazin-2-yl]amino}-N-(6-{[1-(3,3,3-trifluoropropyl)-piperidin-4-yl]oxy}pyridin-3-yl)-1,2-oxazole-4-carboxamide]	1.9	> 20
Cc1noc(Nc2cnc(C(=O)NC3CCN(CC(F)F)CC3)cn2)c1C(=O)Nc1ccc(F)c(F)c1 [Example 1b, N-[1-(2,2-Difluoroethyl)piperidin-4-yl]-5-({4-[(3,4-difluorophenyl)carbamoyl]-3-methyl-1,2-oxazol-5-yl}amino)pyrazine-2-carboxamide]	3.4	> 20
Cc1noc(Nc2cnc(C(F)(F)F)cn2)c1C(=O)Nc1ccc(F)c(F)c1 [Example 1c, N-(3,4-Difluorophenyl)-3-methyl-5-{[5-(trifluoromethyl)pyrazin-2-yl]amino}-1,2-oxazole-4-carboxamide]	0.94	> 20
